Experimental data: US12077503B2, “Substituted cyclic amides and their use as herbicides” (FMC CORPORATION, priority 2015, dated 2024)

Key:
Type in all cases: in vivo
[1] = tested on: ducksalad (Heteranthera limosa); experiment: Test B flooded paddy test; details: Heteranthera limosa, 250 g ai/ha, Flood; 0 to 100 scale where 0 is no effect and 100 is complete control; read-out: Ducksalad plant response rating
Summary of the method: (§1)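 Plants at 2-leaf stage flooded to 3 cm above soil, with compounds applied directly to paddy water and that depth maintained. Plants kept in greenhouse 13–15 d. Visual rating versus controls on a 0 (no effect) to 100 (complete control) scale.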

[2] = tested on: sedge, umbrella (small-flower umbrella sedge, Cyperus difformis); experiment: Test B flooded paddy test; details: Cyperus difformis, 250 g ai/ha, Flood; 0 to 100 scale where 0 is no effect and 100 is complete control; read-out: Sedge, Umbrella plant response rating
Summary of the method: as §1

rice (Oryra sativa) = experiment: Test B flooded paddy test; details: Oryza sativa, 250 g ai/ha, Flood; 0 to 100 scale where 0 is no effect and 100 is complete control; read-out: Rice plant response rating
Summary of the method: as §1

[3] = tested on: barnyardgrass (Echinochloa crus-galli); experiment: Test B flooded paddy test; details: Echinochloa crus-galli, 250 g ai/ha, Flood; 0 to 100 scale where 0 is no effect and 100 is complete control; read-out: Barnyardgrass plant response rating
Summary of the method: as §1

corn (Zea mays) = experiment: Test A postemergence; details: Zea mays, post-emergence, 240 h
Summary of the method: (§2)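 Seeds sprayed preemergence with a directed soil spray, or plants at 2 to 10 cm height and one- to two-leaf stage sprayed postemergence, with test chemicals in a non-phytotoxic solvent mixture containing surfactant, in loam soil–sand blend. Injury rated visually against untreated controls after about 10 d in greenhouse, 0 (no effect) to 100 (complete control).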

[4] = tested on: ryegrass, Italian (Italian ryegrass, Lolium multiflorum); experiment: Test A postemergence; details: Lolium multiflorum, post-emergence, 240 h
Summary of the method: as §2

[5] = tested on: ragweed (common ragweed, Ambrosia elatior); experiment: Test A postemergence; details: Ambrosia artemisiifolia, post-emergence, 240 h
Summary of the method: as §2

Kochia (Kochia scoparia) [6] = experiment: Test A postemergence; details: Bassia scoparia, post-emergence, 240 h
Summary of the method: as §2

[7] = tested on: Galium (catchweed bedstraw, Galium aparine); experiment: Test A postemergence; details: Galium, post-emergence, 240 h
Summary of the method: as §2

[8] = tested on: wheat (Triticum aestivum); experiment: Test A postemergence; details: Triticum aestivum, post-emergence, 240 h
Summary of the method: as §2

[9] = tested on: giant foxtail (Setaria faberii); experiment: Test A postemergence; details: Setaria faberi, post-emergence, 240 h
Summary of the method: as §2

[10] = tested on: pigweed (Amaranthus retroflexus); experiment: Test A postemergence; details: Amaranthus retroflexus, post-emergence, 240 h
Summary of the method: as §2

[11] = tested on: blackgrass (Alopecurus myosuroides); experiment: Test A postemergence; details: Alopecurus myosuroides, post-emergence, 240 h
Summary of the method: as §2

[12] = tested on: barnyardgrass (Echinochloa crus-galli); experiment: Test A postemergence; details: Echinochloa crus-galli, post-emergence, 240 h
Summary of the method: as §2

[13] = tested on: ryegrass, Italian (Italian ryegrass, Lolium multiflorum); experiment: Test A preemergence; details: Lolium multiflorum, pre-emergence, 240 h, 0 to 100 scale where 0 is no effect and 100 is complete control, read-out: Ryegrass, Italian plant response rating
Summary of the method: as §2

[14] = tested on: ragweed (common ragweed, Ambrosia elatior); experiment: Test A preemergence; details: Ambrosia artemisiifolia, pre-emergence, 240 h, 0 to 100 scale where 0 is no effect and 100 is complete control, read-out: Ragweed plant response rating
Summary of the method: as §2

Kochia (Kochia scoparia) [15] = experiment: Test A preemergence; details: Bassia scoparia, pre-emergence, 240 h, 0 to 100 scale where 0 is no effect and 100 is complete control, read-out: Kochia plant response rating
Summary of the method: as §2

[16] = tested on: giant foxtail (Setaria faberii); experiment: Test A preemergence; details: Setaria faberi, pre-emergence, 240 h, 0 to 100 scale where 0 is no effect and 100 is complete control, read-out: Foxtail, Giant plant response rating
Summary of the method: as §2

[17] = tested on: pigweed (Amaranthus retroflexus); experiment: Test A preemergence; details: Amaranthus retroflexus, pre-emergence, 240 h, 0 to 100 scale where 0 is no effect and 100 is complete control, read-out: Pigweed plant response rating
[18] = tested on: barnyardgrass (Echinochloa crus-galli); experiment: Test A preemergence; details: Echinochloa crus-galli, pre-emergence, 240 h, 0 to 100 scale where 0 is no effect and 100 is complete control, read-out: Barnyardgrass plant response rating
Summary of the method: as §2

[19] = 125 g ai/ha, preemergence, approx. 10 d

SMILES: CN1C[C@H](c2ccc(F)c(Oc3ccccc3)c2)[C@@H](C(=O)Nc2ccccc2S(C)(=O)=O)C1=O [Compound 1143]
- pest or weed control at 250 g/ha [1]: 0%
- pest or weed control at 250 g/ha [2]: 0%
- pest or weed control at 250 g/ha (rice (Oryra sativa)): 0%
- pest or weed control at 250 g/ha [3]: 0%
- plant injury at 125 g/ha (corn (Zea mays); 125 g ai/ha, postemergence, visual injury on 0 to 100 scale (0 no effect, 100 complete control), approx. 10 d, read-out: Corn plant response rating): 0%
- Corn plant response rating (crop injury, 0 = no effect, 100 = complete kill) at 31 g/ha (corn (Zea mays); Postemergence, 31 g ai/ha, visual injury after approx. 10 d, 0 to 100 scale, 0 no effect, 100 complete control): 0%
- pest or weed control at 125 g/ha ([4]; 125 g ai/ha, postemergence, visual injury vs untreated controls after approx. 10 d, 0 = no effect, 100 = complete control, read-out: Ryegrass, Italian plant response rating (0 to 100 scale)): 0%
- pest or weed control at 31 g/ha ([4]; Postemergence, 31 g ai/ha, visual injury after approx. 10 d, 0 to 100 scale, 0 no effect, 100 complete control, read-out: Plant response rating, Ryegrass, Italian): 0%
- pest or weed control at 125 g/ha ([5]; 125 g ai/ha, postemergence, visual injury vs untreated controls after approx. 10 d, 0 = no effect, 100 = complete control, read-out: Ragweed plant response rating (0 to 100 scale)): 0%
- pest or weed control at 31 g/ha ([5]; Postemergence, 31 g ai/ha, visual injury after approx. 10 d, 0 to 100 scale, 0 no effect, 100 complete control, read-out: Plant response rating, Ragweed): 0%
- pest or weed control at 125 g/ha (Kochia (Kochia scoparia) [6]; 125 g ai/ha, postemergence, visual injury on 0 to 100 scale (0 no effect, 100 complete control), approx. 10 d, read-out: Kochia plant response rating): 0%
- pest or weed control at 31 g/ha (Kochia (Kochia scoparia) [6]; Postemergence, 31 g ai/ha, visual injury after approx. 10 d, 0 to 100 scale, 0 no effect, 100 complete control, read-out: Plant response rating, Kochia): 0%
- pest or weed control at 125 g/ha ([7]; 125 g ai/ha, postemergence, visual injury on 0 to 100 scale (0 no effect, 100 complete control), approx. 10 d, read-out: Galium plant response rating): 0%
- pest or weed control at 31 g/ha ([7]; Postemergence, 31 g ai/ha, visual injury after approx. 10 d, 0 to 100 scale, 0 no effect, 100 complete control, read-out: Plant response rating, Galium): 0%
- plant injury at 125 g/ha ([8]; 125 g ai/ha, postemergence, visual injury vs untreated controls after approx. 10 d, 0 = no effect, 100 = complete control, read-out: Wheat plant response rating (0 to 100 scale)): 0%
- plant injury at 31 g/ha ([8]; Postemergence, 31 g ai/ha, visual injury after approx. 10 d, 0 to 100 scale, 0 no effect, 100 complete control, read-out: Plant response rating, Wheat): 0%
- pest or weed control at 125 g/ha ([9]; 125 g ai/ha, postemergence, visual injury on 0 to 100 scale (0 no effect, 100 complete control), approx. 10 d, read-out: Foxtail, Giant plant response rating): 40%
- pest or weed control at 31 g/ha ([9]; Postemergence, 31 g ai/ha, visual injury after approx. 10 d, 0 to 100 scale, 0 no effect, 100 complete control, read-out: Plant response rating, Foxtail, Giant): 0%
- pest or weed control at 125 g/ha ([10]; 125 g ai/ha, postemergence, visual injury vs untreated controls after approx. 10 d, 0 = no effect, 100 = complete control, read-out: Pigweed plant response rating (0 to 100 scale)): 20%
- pest or weed control at 31 g/ha ([10]; Postemergence, 31 g ai/ha, visual injury after approx. 10 d, 0 to 100 scale, 0 no effect, 100 complete control, read-out: Plant response rating, Pigweed): 0%
- pest or weed control at 125 g/ha ([11]; 125 g ai/ha, postemergence, visual injury on 0 to 100 scale (0 no effect, 100 complete control), approx. 10 d, read-out: Blackgrass plant response rating): 0%
- pest or weed control at 31 g/ha ([11]; Postemergence, 31 g ai/ha, visual injury after approx. 10 d, 0 to 100 scale, 0 no effect, 100 complete control, read-out: Plant response rating, Blackgrass): 0%
- pest or weed control at 125 g/ha ([12]; 125 g ai/ha, postemergence, visual injury on 0 to 100 scale (0 no effect, 100 complete control), approx. 10 d, read-out: Barnyardgrass plant response rating): 50%
- pest or weed control at 31 g/ha ([12]; Postemergence, 31 g ai/ha, visual injury after approx. 10 d, 0 to 100 scale, 0 no effect, 100 complete control, read-out: Plant response rating, Barnyardgrass): 0%
- pest or weed control at 31 g/ha ([13]; 31 g ai/ha, Preemergence): 0%
- pest or weed control at 125 g/ha [13, 19]: 0%
- pest or weed control at 31 g/ha ([14]; 31 g ai/ha, Preemergence): 0%
- pest or weed control at 125 g/ha [14, 19]: 0%
- pest or weed control at 31 g/ha (Kochia (Kochia scoparia) [15]; 31 g ai/ha, Preemergence): 0%
- pest or weed control at 125 g/ha (Kochia (Kochia scoparia) [15]; [19]): 0%
- pest or weed control at 31 g/ha ([16]; 31 g ai/ha, Preemergence): 20%
- pest or weed control at 125 g/ha [16, 19]: 80%
- pest or weed control at 31 g/ha ([17]; 31 g ai/ha, Preemergence): 0%
- pest or weed control at 125 g/ha [17, 19]: 0%
- pest or weed control at 31 g/ha ([18]; 31 g ai/ha, Preemergence): 0%
- pest or weed control at 125 g/ha [18, 19]: 40%
